Assay results taken from the supplement of paper PMC10331698.
± gives the standard deviation of the averaged measurements.

Assays:
Assay in all cases: level (log10 ratio to DMSO vehicle control); higher = higher biomarker level / cell amount than vehicle control
Settings in all cases: in DMSO
[1] = compound: CC(C)(C)C(=O)CC(=O)C(F)(F)C(F)(F)C(F)(F)F [(Heptafluorobutanoyl)pivaloylmethane]
Experimental: (§1)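 BioMAP Diversity Plus panel of 12 human primary cell co-culture systems (3C, 4H, LPS, SAg, BT, BF4T, BE3C, CASM3C, HDF3CGF, KF3CT, MyoF, Mphg). Compounds were added 1 h before stimulation and left for 24 h (MyoF 48 h; BT 72 h for soluble read-outs or 6 d for IgG). Biomarkers were read by ELISA, cytotoxicity by SRB, PBMC viability and proliferation by Alamar Blue. Each well value was divided by the mean of 8 DMSO control wells on the same plate and log10 transformed; duplicate blinded samples were tested at 4 concentrations.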

Azathioprine = compound: Cn1cnc([N+](=O)[O-])c1Sc1ncnc2[nH]cnc12 [Azathioprine]
Experimental: as §1

[2] = compound: O=C(O)C(F)(F)C(F)(F)C(F)(F)C(F)(F)C(F)(F)C(F)(F)C(F)(F)C(F)(F)Cl [9-Chloro-perfluorononanoic acid]
Experimental: as §1

[3] = compound: O=C(O)CCC(F)(F)C(F)(F)C(F)(F)F [3:3 Fluorotelomer carboxylic acid]
Experimental: as §1

[4] = compound: O=P(O)(O)CCC(F)(F)C(F)(F)C(F)(F)C(F)(F)C(F)(F)C(F)(F)C(F)(F)C(F)(F)F [((Perfluorooctyl)ethyl)phosphonic acid]
Experimental: as §1

[5] = compound: O=S(=O)(O)C(F)(F)C(F)(F)C(F)(F)C(F)(F)C(F)(F)C(F)(F)C(F)(F)C(F)(F)F [Perfluorooctanesulfonic acid]
Experimental: as §1

Test System	level (log10) ([1]; 6700 nM)	level (log10) ([1]; 20000 nM)	level (log10) ([1]; 60000 nM)	level (log10) (Azathioprine; 1400 nM)	level (log10) (Azathioprine; 4200 nM)	level (log10) (Azathioprine; 13000 nM)	level (log10) (Azathioprine; 38000 nM)	level (log10) ([2]; 6700 nM)	level (log10) ([2]; 20000 nM)	level (log10) ([3]; 6700 nM)	level (log10) ([3]; 20000 nM)	level (log10) ([3]; 60000 nM)	level (log10) ([4]; 6700 nM)	level (log10) ([4]; 20000 nM)	level (log10) ([4]; 60000 nM)	level (log10) ([5]; 6700 nM)	level (log10) ([5]; 20000 nM)	level (log10) ([5]; 60000 nM)
3C:CD87/uPAR	-0.0255 ± 0.056	-0.0435 ± 0.026	-0.0255 ± 0.033	0.0255 ± 0.037	0.016 ± 0.033	0.0565 ± 0.018	0.044 ± 0.0071	-0.013 ± 0.017	-0.011 ± 0.038	0.0055 ± 0.011	-0.017 ± 0.0057	-0.0125 ± 0.018	0.0455 ± 0.043	0.071 ± 0.025	0.0885 ± 0.059	0.04 ± 0.037	0.0285 ± 0.022	0.0235 ± 0.036
3C:CXCL8/IL-8	-0.015 ± 0.011	-0.007 ± 0.045	0.016 ± 0.079	0.016 ± 0.054	-0.01 ± 0.011	-0.026 ± 0.0085	-0.0455 ± 0.018	0.005 ± 0.037	0.0235 ± 0.063	-0.004 ± 0.0014	0.0045 ± 0.012	0.023 ± 0.044	0.0315 ± 0.019	0.03 ± 0.018	0.0685 ± 0.0092	0.009 ± 0.024	0.0095 ± 0.026	0.049 ± 0.047
3C:CXCL9/MIG	-0.007 ± 0.016	-0.0045 ± 0.013	0.004 ± 0.0071	0.003	0.003 ± 0.0014	0.0025 ± 0.005	0.0125 ± 0.0035	-0.005 ± 0.0042	0.0065 ± 0.0078	0.0045 ± 0.0021	-0.001 ± 0.0028	0.001 ± 0.0014	0.006 ± 0.0057	-0.0045 ± 0.005	0.0185 ± 0.0064	0.0035 ± 0.00071	-0.002 ± 0.0057	0.009 ± 0.0057
3C:HLA-DR	-0.0205 ± 0.013	-0.0285 ± 0.005	-0.092 ± 0.035	0.006 ± 0.013	-0.001 ± 0.021	0.005 ± 0.048	0.005 ± 0.042	-0.0105 ± 0.0078	0.004 ± 0.021	-0.0055 ± 0.029	-0.0155 ± 0.013	-0.0105 ± 0.0092	0.005 ± 0.0085	0.001 ± 0.0042	-0.0285 ± 0.023	0.0005 ± 0.011	-0.0095 ± 0.021	0.0095 ± 0.023
3C:Proliferation	-0.0155 ± 0.054	-0.044 ± 0.033	-0.379 ± 0.24	-0.04 ± 0.057	-0.038 ± 0.081	-0.048 ± 0.018	-0.179 ± 0.031	0.016 ± 0.079	0.019 ± 0.041	-0.0215 ± 0.054	-0.0175 ± 0.091	0.0195 ± 0.049	-0.0505 ± 0.019	-0.172 ± 0.071	-0.481 ± 0.18	0.0055 ± 0.037	0.0115 ± 0.036	-0.022 ± 0.044
3C:SRB	-0.001 ± 0.0057	-0.003 ± 0.0071	-0.061 ± 0.075	-0.006 ± 0.0014	-0.016 ± 0.0071	-0.0275 ± 0.005	-0.0955 ± 0.019	-0.0005 ± 0.005	-0.0165 ± 0.0035	-0.0095 ± 0.00071	-0.006 ± 0.0028	-0.012 ± 0.0099	0.01 ± 0.016	0.001 ± 0.016	-0.078 ± 0.045	0.018 ± 0.0042	-0.008 ± 0.0099	-0.0625 ± 0.015
4H:CCL2/MCP-1	-0.0085 ± 0.012	-0.006 ± 0.018	-0.0195 ± 0.059	0.018 ± 0.096	0.0255 ± 0.04	-0.035 ± 0.1	0.0055 ± 0.042	-0.001 ± 0.014	-0.0245 ± 0.0035	-0.032 ± 0.048	-0.0525 ± 0.012	0.007 ± 0.013	-0.01 ± 0.0042	-0.0135 ± 0.022	0.004 ± 0.042	-0.001 ± 0.0085	-0.0275 ± 0.021	-0.0255 ± 0.005
4H:CCL26/Eotaxin-3	-0.002 ± 0.0014	0.004 ± 0.0057	0.0145 ± 0.016	0.016 ± 0.0099	-0.009 ± 0.021	-0.003 ± 0.011	-0.0255 ± 0.035	-0.04 ± 0.011	0.016 ± 0.037	-0.005 ± 0.0071	-0.004	-0.0225 ± 0.043	-0.011 ± 0.0085	-0.025 ± 0.0057	-0.108 ± 0.033	-0.014 ± 0.0014	-0.032 ± 0.0028	-0.0595 ± 0.0064
4H:CD62P/P-selectin	-0.045 ± 0.089	-0.032 ± 0.078	-0.076 ± 0.16	-0.019 ± 0.062	-0.007 ± 0.031	-0.0075 ± 0.036	-0.108 ± 0.011	-0.001 ± 0.065	0.0815 ± 0.023	0.0135 ± 0.042	0.0445 ± 0.025	-0.003 ± 0.02	-0.0285 ± 0.019	-0.0235 ± 0.015	-0.126 ± 0.022	0.0345 ± 0.0078	0.061 ± 0.016	0.097 ± 0.018
4H:CD87/uPAR	-0.005 ± 0.057	-0.0135 ± 0.036	0.016 ± 0.12	0.0045 ± 0.018	-0.03 ± 0.035	-0.0015 ± 0.00071	0.0315 ± 0.00071	0.0055 ± 0.033	0.002 ± 0.0099	0.001 ± 0.027	-0.014 ± 0.0071	-0.045 ± 0.011	0.018 ± 0.058	-0.003 ± 0.024	0.102 ± 0.0064	0.07 ± 0.033	0.065 ± 0.014	0.0945 ± 0.049
4H:CD106/VCAM-1	-0.0175 ± 0.019	0.021 ± 0.045	-0.032 ± 0.03	-0.024 ± 0.017	-0.0205 ± 0.025	-0.0655 ± 0.015	-0.132 ± 0.044	-0.0145 ± 0.0078	0.0035 ± 0.013	-0.009 ± 0.0028	-0.014 ± 0.014	-0.0165 ± 0.013	0.011 ± 0.0099	-0.0095 ± 0.016	-0.002 ± 0.0028	0.016 ± 0.0085	-0.029	-0.0155 ± 0.0064
4H:SRB	-0.007 ± 0.0014	-0.005 ± 0.0071	-0.0095 ± 0.016	-0.0135 ± 0.0092	-0.0075 ± 0.005	-0.015 ± 0.0085	-0.0485 ± 0.019	-0.0015 ± 0.00071	-0.0055 ± 0.0035	-0.0125 ± 0.022	-0.003 ± 0.013	-0.0185 ± 0.012	-0.0005 ± 0.0064	0.0025 ± 0.022	-0.055 ± 0.052	-0.0005 ± 0.012	-0.0065 ± 0.011	-0.0085 ± 0.023
4H:VEGFR2	0 ± 0.011	-0.012 ± 0.0071	-0.0105 ± 0.032	-0.0045 ± 0.012	0.0015 ± 0.047	-0.0195 ± 0.0078	0.0155 ± 0.06	-0.108 ± 0.011	-0.0395 ± 0.013	-0.0045 ± 0.0078	-0.0135 ± 0.011	0.0075 ± 0.063	-0.016 ± 0.033	-0.024 ± 0.035	0.007 ± 0.0057	0.0265 ± 0.029	0.0155 ± 0.0064	0.019 ± 0.042
BE3C:CD54/ICAM-1	-0.0055 ± 0.005	-0.008 ± 0.0014	-0.0185 ± 0.011	0 ± 0.018	-0.0115 ± 0.013	-0.0075 ± 0.0078	-0.001 ± 0.031	0.0145 ± 0.018	-0.033 ± 0.014	-0.009 ± 0.0042	0.017 ± 0.02	0.002 ± 0.0057	-0.0275 ± 0.00071	-0.024	0.0045 ± 0.012	0.016 ± 0.011	0.0665 ± 0.00071	-0.263 ± 0.21
BE3C:CD87/uPAR	0.0035 ± 0.032	0.0235 ± 0.0078	-0.0045 ± 0.005	0.0185 ± 0.029	-0.014 ± 0.0042	-0.0175 ± 0.057	-0.0435 ± 0.063	0.0445 ± 0.0021	-0.0005 ± 0.039	0.0045 ± 0.016	-0.0035 ± 0.011	0.0115 ± 0.019	0.0235 ± 0.025	0.04 ± 0.035	0.079 ± 0.038	0.0465 ± 0.005	0.081 ± 0.045	0.0355 ± 0.0021
BE3C:CXCL8/IL-8	-0.0095 ± 0.018	-0.015 ± 0.021	-0.017 ± 0.076	-0.012 ± 0.059	-0.013 ± 0.054	-0.052	-0.088 ± 0.013	0.0025 ± 0.025	-0.102 ± 0.049	-0.0085 ± 0.036	0.0075 ± 0.005	-0.0095 ± 0.0092	0.0305 ± 0.033	0.019 ± 0.028	-0.001 ± 0.048	-0.0875 ± 0.0035	-0.136 ± 0.0021	-0.348 ± 0.25
